Test results taken from ChEMBL document CHEMBL6078666, “Discovery of Novel Coumarin Pleuromutilin Derivatives as Potent Anti-MRSA Agents” (J Med Chem, 2024).
Values after ≈ are worked out from the molar mass of the structure shown. Active and inactive are the calls of the source. The calls are words filed in the database; no cut-off is given here.

Assays:
Streptococcus pneumoniae [1] = assay: Antibacterial activity against penicillin-intermediate Streptococcus pneumoniae ATCC 49619 assessed as bacterial growth inhibition measured after 20 hrs by broth dilution method; type: functional
Streptococcus pneumoniae [2] = assay: Antibacterial activity against penicillin-resistant Streptococcus pneumoniae ATCC 51916 assessed as bacterial growth inhibition measured after 20 hrs by broth dilution method; type: functional
[3] = system: Staphylococcus epidermidis; assay: Antibacterial activity against Staphylococcus epidermidis ATCC 51625 assessed as bacterial growth inhibition measured after 20 hrs by broth dilution method; type: functional
Staphylococcus aureus [4] = assay: Antibacterial activity against methicillin-resistant Staphylococcus aureus ATCC 33591 assessed as bacterial growth inhibition measured after 20 hrs by broth dilution method; type: functional
Enterococcus faecium [5] = assay: Ratio of MBC to MIC against vancomycin-resistant Enterococcus faecium ATCC 51559; type: functional
[6] = system: Staphylococcus epidermidis; assay: Ratio of MBC to MIC against methicillin-resistant Staphylococcus epidermidis clinical isolate 202409139; type: functional
Streptococcus pneumoniae [7] = assay: Ratio of MBC to MIC against penicillin-resistant Streptococcus pneumoniae ATCC 51916; type: functional
[8] = system: Staphylococcus epidermidis; assay: Antibacterial activity against methicillin-resistant Staphylococcus epidermidis clinical isolate 202409139 assessed as bacterial growth inhibition measured after 20 hrs by broth dilution method; type: functional
[9] = system: Staphylococcus epidermidis; assay: Ratio of MBC to MIC against Staphylococcus epidermidis ATCC 51625; type: functional
[10] = system: Staphylococcus epidermidis; assay: Antibacterial activity against methicillin-resistant Staphylococcus epidermidis clinical isolate 202409454 assessed as bacterial growth inhibition measured after 20 hrs by broth dilution method; type: functional
Enterococcus faecium [11] = assay: Ratio of MBC to MIC against vancomycin-resistant Enterococcus faecium ATCC 700221; type: functional
Staphylococcus aureus [12] = assay: Ratio of MBC to MIC against Staphylococcus aureus ATCC 43300; type: functional
Staphylococcus aureus [13] = assay: Ratio of MBC to MIC against methicillin-resistant Staphylococcus aureus ATCC 33591; type: functional
Enterococcus faecium [14] = assay: Ratio of MBC to MIC against vancomycin-resistant Enterococcus faecium clinical isolate 202308456; type: functional
Enterococcus faecium [15] = assay: Antibacterial activity against vancomycin-resistant Enterococcus faecium clinical isolate 202308456 assessed as bacterial growth inhibition measured after 20 hrs by broth dilution method; type: functional
Staphylococcus aureus [16] = assay: Ratio of MBC to MIC against methicillin-resistant Staphylococcus aureus clinical isolate 202313160; type: functional
Enterococcus faecium [17] = assay: Antibacterial activity against vancomycin-resistant Enterococcus faecium ATCC 51559 assessed as bacterial growth inhibition measured after 20 hrs by broth dilution method; type: functional
Staphylococcus aureus [18] = assay: Antibacterial activity against methicillin-resistant Staphylococcus aureus clinical isolate 202405157 assessed as bacterial growth inhibition measured after 20 hrs by broth dilution method; type: functional
Staphylococcus aureus [19] = assay: Antibacterial activity against methicillin-resistant Staphylococcus aureus clinical isolate 202313160 assessed as bacterial growth inhibition measured after 20 hrs by broth dilution method; type: functional
Staphylococcus aureus [20] = assay: Antibacterial activity against methicillin-resistant Staphylococcus aureus ATCC 43300 assessed as bacterial growth inhibition measured after 20 hrs by broth dilution method; type: functional
Staphylococcus aureus [21] = assay: Ratio of MBC to MIC against methicillin-resistant Staphylococcus aureus clinical isolate 202311772; type: functional
Streptococcus pneumoniae [22] = assay: Ratio of MBC to MIC against penicillin-intermediate Streptococcus pneumoniae ATCC 49619; type: functional
Staphylococcus aureus [23] = assay: Antibacterial activity against methicillin-resistant Staphylococcus aureus clinical isolate 202311772 assessed as bacterial growth inhibition measured after 20 hrs by broth dilution method; type: functional
Enterococcus faecium [24] = assay: Antibacterial activity against vancomycin-resistant Enterococcus faecium ATCC 700221 assessed as bacterial growth inhibition measured after 20 hrs by broth dilution method; type: functional
[25] = system: Staphylococcus epidermidis; assay: Ratio of MBC to MIC against methicillin-resistant Staphylococcus epidermidis clinical isolate 202409454; type: functional
Staphylococcus aureus [26] = assay: Ratio of MBC to MIC against methicillin-resistant Staphylococcus aureus clinical isolate 202405157; type: functional
Staphylococcus aureus [27] = assay: Antibacterial activity against methicillin-resistant Staphylococcus aureus ATCC 33591 infected in female C57 mouse systemic infection model assessed as reduction in bacterial load in spleen at 40 mg/kg, iv administered twice daily and measured after 7 days; type: functional; settings: time 7 day
Staphylococcus aureus [28] = assay: Antibacterial activity against methicillin resistant Staphylococcus aureus ATCC 33591 assessed as post antibiotic effect at 2 times MIC by time kill assay; type: functional
Staphylococcus aureus [29] = assay: Antibacterial activity against methicillin-resistant Staphylococcus aureus ATCC 33591 infected in female C57 mouse systemic infection model assessed as reduction in bacterial load in liver at 40 mg/kg, iv administered twice daily and measured after 7 days; type: functional; settings: time 7 day
Staphylococcus aureus [30] = assay: Antibacterial activity against Staphylococcus aureus ATCC 25923 assessed as reduction in GFP expression at 1 to 4 times MIC measured after 1 hr by fluorescence microscopy based analysis; type: functional, organism-based
Staphylococcus aureus [31] = assay: Bactericidal activity against methicillin-resistant Staphylococcus aureus ATCC 33591 at 4 to 8 times MIC measured within 24 hrs by time kill assay; type: functional, organism-based
Staphylococcus aureus [32] = assay: Drug resistance, ratio of MIC for Staphylococcus aureus ATCC 33591 after 8 days to MIC for methicillin-resistant Staphylococcus aureus ATCC 33591 after initial exposure; type: functional; settings: time 8 day
Staphylococcus aureus [33] = assay: Antibacterial activity against methicillin-resistant Staphylococcus aureus ATCC 33591 infected in female C57 mouse systemic infection model assessed as effective dose; type: functional
Staphylococcus aureus [34] = assay: Antibacterial activity against methicillin-resistant Staphylococcus aureus ATCC 33591 infected in female C57 mouse systemic infection model assessed as reduction in bacterial load in kidney at 40 mg/kg, iv administered twice daily and measured after 7 days; type: functional; settings: time 7 day
Staphylococcus aureus [35] = assay: Antibacterial activity against methicillin-resistant Staphylococcus aureus ATCC 33591 infected in female C57 mouse systemic infection model assessed as reduction in bacterial load in lung at 40 mg/kg, iv administered twice daily and measured after 7 days; type: functional; settings: time 7 day
Staphylococcus aureus [36] = assay: Drug resistance, ratio of MIC for Staphylococcus aureus ATCC 33591 after 9 days to MIC for methicillin-resistant Staphylococcus aureus ATCC 33591 after initial exposure; type: functional; settings: time 9 day
Staphylococcus aureus [37] = assay: Antibacterial activity against methicillin resistant Staphylococcus aureus ATCC 33591 assessed as post antibiotic effect at 4 times MIC by time kill assay; type: functional
Staphylococcus aureus [38] = assay: Antibacterial activity against methicillin-resistant Staphylococcus aureus ATCC 33591 infected in female C57 mouse systemic infection model assessed as reduction in bacterial load in heart at 40 mg/kg, iv administered twice daily and measured after 7 days; type: functional; settings: time 7 day
Staphylococcus aureus [39] = assay: Induction of morphological changes in methicillin-resistant Staphylococcus aureus ATCC 33591 assessed as changes in cell surface at 1 time MIC measured after 4 hrs by SEM analysis; type: functional, organism-based

Compound	MIC (Streptococcus pneumoniae [1]) [µg/mL]	MIC (Streptococcus pneumoniae [2]) [µg/mL]	MIC [3] [µg/mL]	MIC (Staphylococcus aureus [4]) [µg/mL]	Ratio (Enterococcus faecium [5])	MIC [8] [µg/mL]	Ratio [9]	MIC [10] [µg/mL]	Ratio (Enterococcus faecium [11])	Ratio (Staphylococcus aureus [12])	Ratio (Enterococcus faecium [14])	MIC (Enterococcus faecium [15]) [µg/mL]	MIC (Enterococcus faecium [17]) [µg/mL]	MIC (Staphylococcus aureus [18]) [µg/mL]	MIC (Staphylococcus aureus [19]) [µg/mL]	MIC (Staphylococcus aureus [20]) [µg/mL]	Ratio (Staphylococcus aureus [21])	Ratio (Streptococcus pneumoniae [22])	MIC (Staphylococcus aureus [23]) [µg/mL]	MIC (Enterococcus faecium [24]) [µg/mL]	also measured
C=C[C@]1(C)C[C@@H](OC(=O)CO)[C@]2(C)[C@H](C)CC[C@]3(CCC(=O)[C@H]32)[C@@H](C)[C@@H]1O [PLEUROMULIN]	2 (≈ 5.28 µM)	4 (≈ 10.6 µM)	1 (≈ 2.64 µM)	0.5 (≈ 1.32 µM)	2	0.25 (≈ 0.66 µM)	>4	0.25 (≈ 0.66 µM)	>4	2	2	0.5 (≈ 1.32 µM)	2 (≈ 5.28 µM)	0.5 (≈ 1.32 µM)	0.5 (≈ 1.32 µM)	1 (≈ 2.64 µM)	>4	2	0.25 (≈ 0.66 µM)	0.5 (≈ 1.32 µM)	Ratio [6]: 4; Ratio (Streptococcus pneumoniae [7]): 4; Ratio (Staphylococcus aureus [13]): 4; Ratio (Staphylococcus aureus [16]): >4
C=C[C@]1(C)C[C@@H](OC(=O)CSc2cc(=O)oc3ccc(F)cc23)[C@]2(C)[C@H](C)CC[C@]3(CCC(=O)[C@H]32)[C@@H](C)[C@@H]1O	0.063 (≈ 0.113 µM)	0.125 (≈ 0.225 µM)	0.031 (≈ 0.0557 µM)	0.031 (≈ 0.0557 µM)	2	0.063 (≈ 0.113 µM)	4	0.125 (≈ 0.225 µM)	4	4	>4	0.031 (≈ 0.0557 µM)	0.063 (≈ 0.113 µM)	0.063 (≈ 0.113 µM)	0.063 (≈ 0.113 µM)	0.063 (≈ 0.113 µM)	>4	>4	0.031 (≈ 0.0557 µM)	0.031 (≈ 0.0557 µM)	Ratio [6]: 2; Ratio (Staphylococcus aureus [13]): >4; Ratio [25]: >4; Ratio (Staphylococcus aureus [26]): >4
C=C[C@]1(C)C[C@@H](OC(=O)CSCCN(CC)CC)[C@]2(C)[C@H](C)CC[C@]3(CCC(=O)[C@H]32)[C@@H](C)[C@@H]1O [TIAMULIN]	0.25 (≈ 0.506 µM)	0.125 (≈ 0.253 µM)	0.125 (≈ 0.253 µM)	0.5 (≈ 1.01 µM)	2	1 (≈ 2.03 µM)	>4	2 (≈ 4.05 µM)	>4	>4	4	2 (≈ 4.05 µM)	0.5 (≈ 1.01 µM)	2 (≈ 4.05 µM)	1 (≈ 2.03 µM)	0.5 (≈ 1.01 µM)	4	>4	2 (≈ 4.05 µM)	0.125 (≈ 0.253 µM)	Activity (Staphylococcus aureus [27]): 0.7 log10CFU/g; PAE (Staphylococcus aureus [28]): 1.07 h; Activity (Staphylococcus aureus [29]): 0.28 log10CFU/g; Activity (Staphylococcus aureus [30]): Active; Activity (Staphylococcus aureus [31]): Active; fold change (FC) (Staphylococcus aureus [32]): 4; ED50 (Staphylococcus aureus [33]): 28.9 mg/kg; Activity (Staphylococcus aureus [34]): 1.39 log10CFU/g; Ratio (Staphylococcus aureus [13]): 4; Activity (Staphylococcus aureus [35]): 1.23 log10CFU/g; fold change (FC) (Staphylococcus aureus [36]): 64; PAE (Staphylococcus aureus [37]): 1.19 h; Activity (Staphylococcus aureus [38]): 2.05 log10CFU/g; Ratio (Staphylococcus aureus [26]): 4; Activity (Staphylococcus aureus [39]): inactive
C=C[C@]1(C)C[C@@H](OC(=O)CSc2cc(=O)oc3cc(Br)ccc23)[C@]2(C)[C@H](C)CC[C@]3(CCC(=O)[C@H]32)[C@@H](C)[C@@H]1O	0.063 (≈ 0.102 µM)	0.125 (≈ 0.202 µM)	0.031 (≈ 0.0502 µM)	0.031 (≈ 0.0502 µM)	1	0.125 (≈ 0.202 µM)	4	0.125 (≈ 0.202 µM)	2	>4	2	0.063 (≈ 0.102 µM)	0.063 (≈ 0.102 µM)	0.063 (≈ 0.102 µM)	0.125 (≈ 0.202 µM)	0.063 (≈ 0.102 µM)	1	>4	0.031 (≈ 0.0502 µM)	0.031 (≈ 0.0502 µM)	Ratio [6]: >4; Ratio (Staphylococcus aureus [16]): 4; Ratio (Staphylococcus aureus [26]): 2
